{"source": "patent US20110190235A1", "about": "“BORON-CONTAINING SMALL MOLECULES AS ANTIPROTOZOAL AGENTS” (Anacor Pharmaceuticals, Inc., priority 2009, published 2011)", "key": {"[1]": {"experiment": "Pharmacokinetic studies in rats (plasma, brain, CSF)", "format": "in vivo", "settings": "for half-life: read-out: t½ (converted); for Cmax / AUC(0-t) / AUC(0-inf): normalized to 25 mg/kg; for AUC(0-t): read-out: Exposure/trapezoid AUC0-18; for AUC(0-inf): read-out: Exposure/trapezoid AUC0-inf", "protocol": "Male Sprague Dawley rats weighing approximately 200 g received test article (E19 or 82) as a single oral gavage (OG) dose of approximately 25 mg/kg (approximately 10 animals per group).\nAll doses were administered as clear colorless solutions as in situ sodium salts in 5% (m/v) dextrose:2% (v/v) ethanol in DWI. All dose solutions were delivered at 2 mL/kg. Animals were fasted for at least 4 hours before dosing, and for 2 hours after dosing.\nBlood and CSF samples and brain tissue were sampled from 1 animal/timepoint/group immediately before dosing and approximately 0.5, 1, 2, 3, 4, 6, 8, 12, 18 and 24 hr after dosing for full pharmacokinetic (plasma and CSF) and tissue (Brain) analysis."}, "[2]": {"system": "bloodstream-form trypanosome T. brucei brucei 427 strain", "experiment": "Trypanosoma brucei brucei high-throughput in vitro drug sensitivity assay (resazurin)", "format": "cell-based", "settings": "Trypanosoma brucei, 72 h"}, "[3]": {"experiment": "Pharmacokinetic studies in mice (plasma, brain)", "format": "in vivo", "settings": "for Cmax: normalized to 25 mg/kg (nominal 25 mg/kg); for AUC(0-t) / AUC(0-inf): normalized to 25 mg/kg; for AUC(0-t): read-out: Exposure/trapezoid AUC0-18; for AUC(0-inf): read-out: Exposure/trapezoid AUC0-inf", "protocol": "Male CD-1 mice weighing approximately 25 g received the test article (E19 or 82 or E14 or 69) by either intravenous (IV), oral gavage (OG) or intra-peritoneal (IP) routes. Animals in IV group (6-10 animals, 1-2 per time point) received a single bolus injection of approximately 2 mg/kg of the test article. Animals receiving […], or as 4 repeat doses ([…], 1-2 per time point).\nAll doses were administered as clear colorless solutions in either: 50% (v/v) PEG400:20% (v/v) ethanol:30% (v/v) carboxymethylcellulose (0.5% w/v in sterile water for injection, WFI), or as in situ sodium salts in 5% (m/v) dextrose:2% (v/v) ethanol in DWI. All dose solutions were delivered at 4 mL/kg. Animals were fasted for at least 4 hours before dosing, and for 2 hours after dosing.\nBlood samples and brain tissue were sampled from 1 or 2 animals/timepoint/group immediately before dosing and approximately 0.17, 0.5, 1, 2, 3, 4, 6, 8, 12, 18 and 24 hr after dosing for full pharmacokinetic and tissue analysis, or at 0.5, 2 and 4 hours post dosing to assess early-phase CNS disposition.\nBioanalysis for test article in whole blood, plasma or brain tissue was performed by HPLC with tandem mass spectrometry (LC-MSMS). Whole blood and plasma samples were treated with 3 volumes of either acetonitrile or methanol to precipitate plasma proteins. Treated samples were centrifuged and supernatants removed for analysis. Brain tissues were weighed and homogenized mechanically in the presence of 1 volume of phosphate-buffered saline (PBS). The resulting tissue suspensions were then diluted with a further volume of PBS, and then treated in the same manner as whole blood or plasma.\nExtracted samples were assayed for test article by means of LC-MSMS employing reversed-phase chromatography coupled to a triple quadrupole mass spectrometer employing electrospray ionization in the positive ion mode. The analytical column was a Phenomenex Luna 3μ C8 50×2 mm, with an online sample purification step performed on a Phenomenex Synergi 4μ Polar RP 50×2 mm column.\nTest articles were eluted using a binary mobile phase gradient comprising 5 mM Ammonium Acetate: 0.1% formic acid in either MeOH or H2O.\nNon-compartmental analysis of plasma test article concentration versus time was performed in Microsoft Excel to generate pharmacokinetic parameters including: area under the curve (AUC), clearance (as Cl or Cl/F), volume of distribution (Vdss), half-life (t½), and bioavailability (F)."}, "[4]": {"experiment": "L929 cytotoxicity evaluation (resazurin)", "format": "cell-based", "settings": "mouse, L929 mouse fibroblast cells; 72 hrs incubation; read-out: Cytotox L-929 IC50", "in_short": "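Mouse L929 fibroblasts (1×10^4/mL seeding, attached overnight) were treated 72 h at 37 °C, 5% CO2 with serially diluted compounds in DMSO in D-MEM/10% FBS. Viability read by resazurin fluorescence after 3–4 h (ex 544/em 590 nm); IC50 from sigmoidal fits of single data points.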"}, "[5]": {"settings": "male, Sprague Dawley, rat, CSF, oral, rats"}, "[6]": {"settings": "male, Sprague Dawley, rat, brain, oral, rats"}, "[7]": {"settings": "male, Sprague Dawley, rat, plasma, oral, rats"}, "[8]": {"settings": "male, CD-1, mouse, brain, oral, mice"}, "[9]": {"settings": "male, CD-1, mouse, plasma, oral, mice"}}, "note": "Where two headings read alike, the source gives them in different places."}
{"smiles": "CC1(C)OB(O)c2cc(NC(=O)c3ccc(F)cc3C(F)(F)F)ccc21", "note": "[compound 82]", "values": [{"measurement": "half-life", "setting": "[1]; male, Sprague Dawley, rat, 25 mg/kg, CSF, oral, rats", "value": 8.7, "unit": "h"}, {"measurement": "half-life", "setting": "[1]; male, Sprague Dawley, rat, 25 mg/kg, brain, oral, rats", "value": 9.5, "unit": "h"}, {"measurement": "CL/F", "setting": "[1]; male, Sprague Dawley, rat, 25 mg/kg, plasma, oral, rats, read-out: Oral Clearance Cl/F (converted)", "value": 1.53, "unit": "mL/min/kg"}, {"measurement": "half-life", "setting": "[1]; male, Sprague Dawley, rat, 25 mg/kg, plasma, oral, rats", "value": 15.5, "unit": "h"}, {"measurement": "Cmax", "setting": "[1]; [5]", "value": 1000, "unit": "ng/mL"}, {"measurement": "AUC(0-t)", "setting": "[1]; [5]", "value": 13.6, "unit": "µg·h/mL"}, {"measurement": "AUC(0-inf)", "setting": "[1]; [5]", "value": 16.8, "unit": "µg·h/mL"}, {"measurement": "Cmax", "setting": "[1]; [6]", "value": 7900, "unit": "ng/mL"}, {"measurement": "AUC(0-t)", "setting": "[1]; [6]", "value": 120, "unit": "µg·h/mL"}, {"measurement": "AUC(0-inf)", "setting": "[1]; [6]", "value": 152, "unit": "µg·h/mL"}, {"measurement": "Cmax", "setting": "[1]; [7]", "value": 17000, "unit": "ng/mL"}, {"measurement": "AUC(0-t)", "setting": "[1]; [7]", "value": 272, "unit": "µg·h/mL"}, {"measurement": "AUC(0-inf)", "setting": "[1]; [7]", "value": 433, "unit": "µg·h/mL"}, {"measurement": "time levels in brain and CSF are above the in vitro MIC", "setting": "[1]; nominal single oral dose of 25 mg/kg to rats", "value": "approximately 12 hours"}, {"measurement": "fold improved exposure in CSF over E19", "setting": "[1]; rat, in vivo", "value": "approximately 4 fold"}, {"measurement": "Fold improvement 82 vs. E19: Oral Clearance Cl/F", "setting": "[1]; rat, in vivo, po", "value": 2.8, "unit": "fold"}, {"measurement": "Fold improvement 82 vs. E19: t½", "setting": "[1]; rat, in vivo, po, CSF", "value": 2.8, "unit": "fold"}, {"measurement": "Fold improvement 82 vs. E19: t½", "setting": "[1]; rat, in vivo, po, brain", "value": 3.7, "unit": "fold"}, {"measurement": "Fold improvement 82 vs. E19: t½", "setting": "[1]; rat, in vivo, po, plasma", "value": 1.9, "unit": "fold"}, {"measurement": "IC50", "setting": "[2]; read-out: T. b. brucei IC50 (nM)", "value": 556, "unit": "nM"}, {"measurement": "IC50", "setting": "[2]; read-out: T.b. brucei IC50 (ug/mL)", "value": 0.204, "unit": "µg/mL"}, {"measurement": "CL/F", "setting": "[3]; male, CD-1, mouse, 25 mg/kg, plasma, oral, mice, read-out: Oral Clearance Cl/F (converted)", "value": 3.27, "unit": "mL/min/kg"}, {"measurement": "half-life", "setting": "[3]; male, CD-1, mouse, 25 mg/kg, plasma, oral, mice, read-out: t½ (converted)", "value": 6.9, "unit": "h"}, {"measurement": "Cmax", "setting": "[3]; [8]", "value": 7700, "unit": "ng/mL"}, {"measurement": "AUC(0-t)", "setting": "[3]; [8]", "value": 64.9, "unit": "µg·h/mL"}, {"measurement": "AUC(0-inf)", "setting": "[3]; [8]", "value": 65.5, "unit": "µg·h/mL"}, {"measurement": "Cmax", "setting": "[3]; [9]", "value": 9400, "unit": "ng/mL"}, {"measurement": "AUC(0-t)", "setting": "[3]; [9]", "value": 108, "unit": "µg·h/mL"}, {"measurement": "AUC(0-inf)", "setting": "[3]; [9]", "value": 128, "unit": "µg·h/mL"}, {"measurement": "brain concentrations relative to the MIC", "setting": "[3]; mouse and rat, brain (and CSF)", "value": "maintains concentrations above the MIC for extended time periods"}, {"measurement": "fold improved exposure in brain tissue over E19", "setting": "[3]; mouse, in vivo", "value": "6-12 fold"}, {"measurement": "Fold improvement 82 vs. E19: Oral Clearance Cl/F", "setting": "[3]; mouse, in vivo, po", "value": 1.2, "unit": "fold"}, {"measurement": "Fold improvement 82 vs. E19: t½", "setting": "[3]; mouse, in vivo, po", "value": 0.4, "unit": "fold"}, {"measurement": "fold improved plasma exposure (based on AUC) over E19", "setting": "[3]; mouse, in vivo, po", "value": "2-4 fold"}, {"measurement": "Fold improvement 82 vs. E19: Cmax", "setting": "[3]; mouse, in vivo, po, brain", "value": 1.6, "unit": "fold"}, {"measurement": "Fold improvement 82 vs. E19: Cmax", "setting": "[3]; mouse, in vivo, po, plasma", "value": 1.2, "unit": "fold"}, {"measurement": "dose proportionality of brain exposure", "setting": "[3]; oral delivery to mice", "value": "generally dose-proportional increases"}, {"measurement": "dose proportionality of plasma exposure", "setting": "[3]; oral delivery to mice", "value": "greater than proportional at doses above 20 mg/kg"}, {"measurement": "F (% of IV)", "setting": "[3]; plasma, oral, mice", "value": 45, "unit": "%"}, {"measurement": "plasma PK when administered to rodents", "setting": "[3]; rodents, plasma", "value": "good exposure (AUC and Cmax), promising bioavailability, prolonged half-life, and low clearance"}, {"measurement": "IC50 at 72 h", "setting": "[4]", "value": "> 10", "unit": "µg/mL"}]}
